Tests used:
Type in all cases: in vivo
Cyperus iria = assay: Post-emergence test experiment, weed control; conditions: post-emergence spray, 600 g a.i./ha plus water 450 kg/ha, 3 weeks in greenhouse
Description: (§1) The above described growth inhibition rate is fresh weight inhibition rate.
(§2) Post-emergence test experiment: Monocotyledonous and dicotyledonous weed seeds and main crop seeds (i. e. wheat, corn, rice, soybean, cotton, oilseed, millet and sorghum.) were put into a plastic pot loaded with soil. Then covered with 0.5-2 cm soil, the seeds were allowed to grow in good greenhouse environment. The test plants were treated at 2-3 leaf stage 2 weeks after sowing. The test compounds of the invention were dissolved with acetone respectively, then added with tween-80, and using 1.5 liters per hectare of an emulsible concentrate of methyl oleate as a synergist, and diluted by certain amount of water to certain concentration. The solution was sprayed to the plants with a sprayer. Then the plants were cultured for 3 weeks in the greenhouse, and the experiment result of weed controlling effect was listed in tables 3-4.

Rice = assay: Transplanted rice safety evaluation; conditions: 1000 g a.i./ha, transplanted 3 leaf stage japonica rice, treated 5 days after transplantation, 21 days after treatment
Description: as §1
In addition, the rice field soil that loaded into the 1/1,000,000 ha pot was leveled to keep water storage at 3-4 cm depth. The 3 leaf stage rice (japonica rice) was transplanted at 3 cm of transplanting depth the next day. The compound of the present invention was treated by the same way after 5 days of transplantation.
(§3) The fertility condition of Scirpus juncoides, Sagittaria trifolia and Monochoria vaginalis 14 days after the treatment of the compound of the invention and the fertility condition of rice 21 days after the treatment of the compound of the invention respectively with the naked eye. Evaluate the weed control effect with 0-5 activity standard level.

Monochoria Vaginalis = assay: Weed control effect evaluation in rice field; conditions: 1000 g a.i./ha, paddy water application at 0.5 leaf stage, 14 days after treatment; weeds resistant to pyrazosulfuron-ethyl and penoxsulam
Source text: as §1
(§4) Transplanted rice safety evaluation and weed control effect evaluation in rice field: Rice field soil was loaded into a 1/1,000,000 ha pot. The seeds of Scirpus juncoides, Sagittaria trifolia and Monochoria vaginalis were sowed and gently covered with soil, then left to stand still in greenhouse in the state of 0.5-1 cm of water storage. The tuber of Sagittaria trifolia was planted in the next day or 2 days later. It was kept at 3-4 cm of water storage thereafter. The weeds were treated by dripping the WP or SC water diluents prepared according to the common preparation method of the compounds of the present invention with pipette homogeneously to achieve specified effective amount when Scirpus juncoides, and Monochoria vaginalis reached 0.5 leaf stage and Sagittaria trifolia reached the time point of primary leaf stage.
as §3, with “level. Many compounds show excellent activity and selectivity.” for “level.”

Scirpus juncoides = assay: Weed control effect evaluation in rice field; conditions: 1000 g a.i./ha, paddy water application at 0.5 leaf stage, 14 days after treatment; weeds resistant to pyrazosulfuron-ethyl and penoxsulam
Source text: as §1, §4
as §3, with “level. Many compounds show excellent activity and selectivity.” for “level.”

Sagittaria trifolia = assay: Weed control effect evaluation in rice field; conditions: 1000 g a.i./ha, paddy water application at primary leaf stage, 14 days after treatment; weeds resistant to pyrazosulfuron-ethyl and penoxsulam
Source text: as §1, §4
as §3, with “level. Many compounds show excellent activity and selectivity.” for “level.”

[1] = test system: Monocotyledonous and dicotyledonous weed seeds and main crop seeds; assay: Post-emergence test experiment (Table 3, 1000 g a.i./ha); conditions: 3 weeks in greenhouse, fresh weight inhibition
How it was run: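 Weeds and crops (wheat, corn, rice, soybean, cotton, oilseed, millet, sorghum) grown in soil in the greenhouse and sprayed post-emergence at 2–3 leaf stage, 2 weeks after sowing. Compound in acetone with tween-80 plus methyl oleate emulsible concentrate (1.5 L/ha) as synergist, diluted in water. Fresh weight inhibition scored after 3 weeks.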

Japonica rice = assay: Post-emergence test experiment, crop selectivity; conditions: post-emergence spray, 600 g a.i./ha plus water 450 kg/ha, 3 weeks in greenhouse
Description: as §1, §2

Indica rice = assay: Post-emergence test experiment, crop selectivity; conditions: post-emergence spray, 600 g a.i./ha plus water 450 kg/ha, 3 weeks in greenhouse
Description: as §1, §2

CCOC(=NOC(=O)C(C)Oc1nc(F)c(Cl)c(N)c1Cl)c1ccc(NC(C)=O)cc1 (centres unmarked) [Compound 88]
Activity level (fresh weight growth inhibition rate), Cyperus iria (Cyperus iria): 5 (Level 5: the growth inhibition rate is greater than 85%) | Safety, 0-5 activity standard level, Rice (Rice): 0 (Level 0: the growth inhibition rate is less than 5%) | Weed control effect, 0-5 activity standard level, Monochoria Vaginalis (Monochoria Vaginalis): 5 (Level 5: the growth inhibition rate is greater than 85%) | Weed control effect, 0-5 activity standard level, Scirpus juncoides (Scirpus juncoides): 4 (Level 4: the growth inhibition rate is equal to or greater than 60% and less than 85%) | Weed control effect, 0-5 activity standard level, Sagittaria trifolia (Sagittaria trifolia): 4 (Level 4: the growth inhibition rate is equal to or greater than 60% and less than 85%) | Activity level (growth inhibition rate) Digitaria sanguinalis ([1]; Digitaria sanguinalis): 5 (Level 5: the growth inhibition rate is greater than 85%) | Activity level (growth inhibition rate) Echinochloa crusgalli ([1]; Echinochloa crusgalli): 5 (Level 5: the growth inhibition rate is greater than 85%) | Activity level (growth inhibition rate) Galium spurium ([1]; Galium spurium): 5 (Level 5: the growth inhibition rate is greater than 85%) | Activity level (growth inhibition rate) Leptochloa chinensis ([1]; Leptochloa chinensis): 5 (Level 5: the growth inhibition rate is greater than 85%) | Activity level (growth inhibition rate) Monochoria Vaginalis ([1]; Monochoria Vaginalis): 5 (Level 5: the growth inhibition rate is greater than 85%) | Activity level (growth inhibition rate) Murdannia triquetra ([1]; Murdannia triquetra): 5 (Level 5: the growth inhibition rate is greater than 85%) | Activity level (growth inhibition rate) Setaria viridis ([1]; Setaria viridis): 5 (Level 5: the growth inhibition rate is greater than 85%) | Activity level (fresh weight growth inhibition rate), Japonica rice (Japonica rice): 0 (Level 0: the growth inhibition rate is less than 5%) | Activity level (fresh weight growth inhibition rate), Indica rice (Indica rice): 0 (Level 0: the growth inhibition rate is less than 5%)
